Measurements from US10473574B2, “Assembly for assessing drug permeability with adjustable biomimetic properties” (Syddansk Universitet, priority 2014, dated 2019).

Experiments:
in vitro = experiment: in vitro
Description: A sheet of cellulose hydrate was prewashed in demineralized water. The sheet was put on a flat surface and sprayed with a 1% (M/M) solution of egg yolk lecithin (E-80, Lipoid GmbH, Ludwigshafen, Germany) in ethanol. […] Once the organic solvent was evaporated, two coated sheets were placed one upon the other, sandwiching the phospholipids.
Frantz cells with a permeation surface of 1 cm^2, a maximum volume in the upper compartment of 1.8 mL and a fixed volume in the bottom compartment of 8 mL were used.
The barrier was placed in between of the donor and the acceptor chamber, and a permeability experiment was performed at 25° C. […]
8 mL of phosphate buffer solution was placed into the lower compartment. The barrier was placed, and at time zero (start of the experiment) 1.5 mL of a 10 mM phosphate buffer solution of calcein was placed in the upper compartment. Every 60 minutes, 0.2 mL of the solution in the lower compartment were withdrawn and calcein concentration quantified by fluorescence spectroscopy. The removed volume was replaced with an equivalent amount of fresh buffer.
For all permeability studies, Franz diffusion cells with a surface area of 1 cm^2, upper chamber nominal volume of 2 mL and lower chamber volume of 8 mL were employed. The donor phase (upper chamber) was filled with 1.5 mL hydrophilic marker calcein (5 mM) and different surfactants and solvents, whereas the acceptor compartment (lower chamber) was filled with 8 mL PBS (7.4±0.05). The barrier was placed between the donor and acceptor compartment and the flux (3) of calcein was measured over time. The permeability studies were carried out over a 5 hours period, and samples of 200 μL were withdrawn from the acceptor chamber every 30 min for the first 2 hours and then every 60 min. The withdrawn sample volume was replaced with an equal amount of fresh PBS at each time point. […]

[1] = Permeability of calcein through the empty barrier support (no lipid layer); type: in vitro ADME; settings: pH 7.4, calcein 5 mM donor, PBS acceptor
From the text: It is visible that the permeation of calcein through the empty barrier support is much faster. Specifically, the permeability of calcein is approx. 10 times higher as compared to the barrier of the present invention.

SMILES: Cn1c(=O)c2c(ncn2C)n(C)c1=O [caffeine]
- permeability with FeSSIF as acceptor media versus other acceptor media (in vitro): unchanged

SMILES: O=C(O)CN(CC(=O)O)Cc1cc2c(cc1O)Oc1cc(O)c(CN(CC(=O)O)CC(=O)O)cc1C21OC(=O)c2ccccc21 [calcein]
- Papp at 5 h, 5 mM [1]: 16.5 ± 1 ×10⁻⁶ cm/s
- change of permeability with Polysorbat 80 (in vitro): not increased, but decreased
- influence of lipid composition of the barrier on permeability (in vitro): strong influence
- increase of permeability with 5% Cremophor relative to PBS (in vitro; 5 h, 5 mM, pH 7.4): ~2 fold
- Papp at 5 h, 5 mM (in vitro; pH 7.4, Papp in PBS): 2.7 ± 0.5 ×10⁻⁶ cm/s
- Papp (in vitro; pH 7.4, permeability coefficient (P)): 1.2 ± 0.1 ×10⁻⁶ cm/s

SMILES: CC(C)Cc1ccc(C(C)C(=O)O)cc1 (stereo not drawn) [ibuprofen]
- influence of lipid composition of the barrier on permeability (in vitro): strong influence

SMILES: CC(C)(C)NCC(O)COc1cccc2c1CC(O)C(O)C2 (stereo not drawn) [nadolol]
- influence of lipid composition of the barrier on permeability (in vitro): strong influence
